Source: patent US20240101521A1, “DIAMINOTRIAZINE COMPOUNDS” (BASF SE, priority 2021, published 2024)

Key:
Experiment in all cases: greenhouse pre-emergence herbicidal test
Format in all cases: in vivo
Conditions in all cases: scale 0 to 100
[1] = test system: Echinochloa crus-galli
Excerpt: (§1) The culture containers used were plastic flowerpots containing loamy sand with approximately 3.0% of humus as the substrate. The seeds of the test plants were sown separately for each species.
(§2) For the pre-emergence treatment, the active ingredients, which had been suspended or emulsified in water, were applied directly after sowing by means of finely distributing nozzles. The containers were irrigated gently to promote germination and growth and subsequently covered with transparent plastic hoods until the plants had rooted. This cover caused uniform germination of the test plants, unless this had been impaired by the active ingredients. For the post-emergence treatment, the test plants were first grown to a height of 3 to 15 cm, depending on the plant habit, and only then treated with the active ingredients which had been suspended or emulsified in water. For this purpose, the test plants were either sown directly and grown in the same containers, or they were first grown separately as seedlings and transplanted into the test containers a few days prior to treatment.
(§3) Depending on the species, the plants were kept at 10-25° C. or 20-35° C., respectively.
(§4) The test period extended over 2 to 4 weeks. During this time, the plants were tended, and their response to the individual treatments was evaluated.
(§5) Evaluation was carried out using a scale from 0 to 100. 100 means no emergence of the plants, or complete destruction of at least the aerial moieties, and 0 means no damage, or normal course of growth. A moderate herbicidal activity is given at values of at least 60, a good herbicidal activity is given at values of at least 70, and a very good herbicidal activity is given at values of at least 85.
(§6) The plants used in the greenhouse experiments were of the following species: […]

[2] = test system: Amaranthus retroflexus
Excerpt: as §1, §2, §3, §4, §5, §6

[3] = test system: Abutilon theophrasti
Excerpt: as §1, §2, §3, §4, §5, §6

[4] = test system: Setaria faberi
Excerpt: as §1, §2, §3, §4, §5, §6

[5] = test system: Alopecurus myosuroides
Excerpt: as §1, §2, §3, §4, §5, §6

In the case of `COc1c(Cl)cc(F)c(F)c1Nc1nc(N)nc(C(C)(F)F)n1` [Example 49, N4-(5-chloro-2,3-difluoro-6-methoxy-phenyl)-6-(1,1-difluoroethyl)-1,3,5-triazine-2,4-diamine], the herbicidal activity ([1]; pre-emergence, 62,5 g/ha) is reported as 100%, the herbicidal activity ([2]; pre-emergence, 62,5 g/ha) is reported as 100% and the herbicidal activity ([3]; pre-emergence, 62,5 g/ha) is reported as 100%.

`COc1c(Br)cc(F)c(F)c1Nc1nc(N)nc(C(C)(F)F)n1` [Example 50] gave a herbicidal activity ([4]; pre-emergence, 31 g/ha) of 100%, a herbicidal activity ([2]; pre-emergence, 31 g/ha) of 100% and a herbicidal activity ([3]; pre-emergence, 31 g/ha) of 80%.

`C#CC(C)Oc1c(Cl)cc(F)c(F)c1Nc1nc(N)nc(C(C)(C)F)n1` (stereo not drawn) [Example 99] showed a herbicidal activity ([4]; pre-emergence, 62 g/ha) of 100%, a herbicidal activity ([2]; pre-emergence, 62 g/ha) of 100% and a herbicidal activity ([3]; pre-emergence, 62 g/ha) of 100%.

Compound `COc1c(Cl)cc(F)c(F)c1Nc1nc(N)nc(C(C)(C)Cl)n1` [Example 37] has a herbicidal activity ([1]; pre-emergence, 62,5 g/ha) of 100%, a herbicidal activity ([2]; pre-emergence, 62,5 g/ha) of 100% and a herbicidal activity ([3]; pre-emergence, 62,5 g/ha) of 98%.

With `C=CC(C)(F)c1nc(N)nc(Nc2c(F)c(F)cc(Br)c2OC)n1` (stereo not drawn) [Example 121] the herbicidal activity ([4]; pre-emergence, 62,5 g/ha) was 100%, the herbicidal activity ([2]; pre-emergence, 62,5 g/ha) was 100% and the herbicidal activity ([3]; pre-emergence, 62,5 g/ha) was 100%.

Work on `COc1c(Cl)cc(F)c(F)c1Nc1nc(N)nc(C2(F)CCCC2)n1` [Example 11] yielded a herbicidal activity ([4]; pre-emergence, 250 g/ha) of 100%, a herbicidal activity ([1]; pre-emergence, 250 g/ha) of 100% and a herbicidal activity ([5]; pre-emergence, 250 g/ha) of 100%.

Work on `CC#CCOc1c(Br)cc(F)c(F)c1Nc1nc(N)nc(C(C)(C)F)n1` [Example 15] yielded a herbicidal activity ([4]; pre-emergence, 125 g/ha) of 100%, a herbicidal activity ([1]; pre-emergence, 125 g/ha) of 100% and a herbicidal activity ([5]; pre-emergence, 125 g/ha) of 100%.

`C#CC(C)Oc1c(Br)cc(F)c(F)c1Nc1nc(N)nc(C2(F)CCCC2)n1` (stereo not drawn) [Example 97] was tested, and the herbicidal activity ([4]; pre-emergence, 62 g/ha) was 85%, the herbicidal activity ([2]; pre-emergence, 62 g/ha) was 85% and the herbicidal activity ([5]; pre-emergence, 62 g/ha) was 70%.

`CCC(C)(F)c1nc(N)nc(Nc2c(F)c(F)cc(Cl)c2OC)n1` (stereo not drawn) [Example 116] showed a herbicidal activity ([2]; pre-emergence, 62,5 g/ha) of 100%, a herbicidal activity ([5]; pre-emergence, 62,5 g/ha) of 100% and a herbicidal activity ([3]; pre-emergence, 62,5 g/ha) of 100%.

`COc1c(C)cc(Br)c(F)c1Nc1nc(N)nc(C(C)(C)F)n1` [Example 51] showed a herbicidal activity ([4]; pre-emergence, 62 g/ha) of 100%, a herbicidal activity ([2]; pre-emergence, 62 g/ha) of 100% and a herbicidal activity ([3]; pre-emergence, 62 g/ha) of 100%.

For `C=CC(C)(F)c1nc(N)nc(Nc2c(F)c(F)cc(Cl)c2OC)n1` (stereo not drawn) [Example 122], the herbicidal activity ([4]; pre-emergence, 62,5 g/ha) was 100%, the herbicidal activity ([2]; pre-emergence, 62,5 g/ha) was 100% and the herbicidal activity ([3]; pre-emergence, 62,5 g/ha) was 100%.

`CC(C)(F)c1nc(N)nc(Nc2c(F)c(F)cc(Cl)c2OCC#CC2CC2)n1` [Example 30] gave a herbicidal activity ([4]; pre-emergence, 31 g/ha) of 100%, a herbicidal activity ([5]; pre-emergence, 31 g/ha) of 100% and a herbicidal activity ([3]; pre-emergence, 31 g/ha) of 100%.

Compound `COc1c(F)cc(C)c(F)c1Nc1nc(N)nc(C(C)(C)F)n1` [Example 32, N4-(2,5-difluoro-6-methoxy-3-methyl-phenyl)-6-(1-fluoro-1-methyl-ethyl)-1,3,5-triazine-2,4-diamine] has a herbicidal activity ([1]; pre-emergence, 62,5 g/ha) of 100%, a herbicidal activity ([2]; pre-emergence, 62,5 g/ha) of 100% and a herbicidal activity ([3]; pre-emergence, 62,5 g/ha) of 100%.

`CC=C(Cl)COc1c(Cl)cc(F)c(F)c1Nc1nc(N)nc(C(C)(C)F)n1` [Example 53] was tested, and the herbicidal activity ([4]; pre-emergence, 62,5 g/ha) was 100%, the herbicidal activity ([1]; pre-emergence, 62,5 g/ha) was 98% and the herbicidal activity ([5]; pre-emergence, 62,5 g/ha) was 90%.

In the case of `C=CC(C)(F)c1nc(N)nc(Nc2c(F)c(F)c(F)c(Cl)c2OC)n1` (stereo not drawn) [Example 173], the herbicidal activity ([4]; pre-emergence, 62,5 g/ha) is reported as 95%, the herbicidal activity ([2]; pre-emergence, 62,5 g/ha) is reported as 100% and the herbicidal activity ([5]; pre-emergence, 62,5 g/ha) is reported as 100%.

`COc1c(C)c(F)c(F)c(F)c1Nc1nc(N)nc(C(C)(C)F)n1` [Example 169] showed a herbicidal activity ([1]; pre-emergence, 62,5 g/ha) of 100%, a herbicidal activity ([2]; pre-emergence, 62,5 g/ha) of 100% and a herbicidal activity ([5]; pre-emergence, 62,5 g/ha) of 100%.

`C#CC(C)(F)c1nc(N)nc(Nc2c(F)c(F)cc(Br)c2OC)n1` (stereo not drawn) [Example 115] was tested, and the herbicidal activity ([2]; pre-emergence, 62,5 g/ha) was 100%, the herbicidal activity ([5]; pre-emergence, 62,5 g/ha) was 98% and the herbicidal activity ([3]; pre-emergence, 62,5 g/ha) was 90%.

`C#CCOc1c(Br)cc(F)c(F)c1Nc1nc(N)nc(C(C)(C)F)n1` [Example 17] gave a herbicidal activity ([1]; pre-emergence, 250 g/ha) of 100%, a herbicidal activity ([2]; pre-emergence, 250 g/ha) of 100% and a herbicidal activity ([3]; pre-emergence, 250 g/ha) of 100%.

`COc1c(Cl)cc(F)c(F)c1Nc1nc(N)nc(C(F)CC(C)C)n1` (racemic) [Example 12] gave a herbicidal activity ([4]; pre-emergence, 250 g/ha) of 100%, a herbicidal activity ([1]; pre-emergence, 250 g/ha) of 100% and a herbicidal activity ([5]; pre-emergence, 250 g/ha) of 100%.

Compound `COc1c(Cl)cc(F)c(F)c1Nc1nc(N)nc(C(C)(C)OC)n1` [Example 36] has a herbicidal activity ([1]; pre-emergence, 62,5 g/ha) of 100%, a herbicidal activity ([2]; pre-emergence, 62,5 g/ha) of 100% and a herbicidal activity ([3]; pre-emergence, 62,5 g/ha) of 100%.

Compound `Nc1nc(Nc2c(F)ccc(Br)c2OC2CC2)nc(C2(F)CCCC2)n1` [Example 14] has a herbicidal activity ([4]; pre-emergence, 125 g/ha) of 100%, a herbicidal activity ([1]; pre-emergence, 125 g/ha) of 98% and a herbicidal activity ([5]; pre-emergence, 125 g/ha) of 98%.

Work on `CCC(C)(F)c1nc(N)nc(Nc2c(F)c(F)cc(Br)c2OC)n1` (stereo not drawn) [Example 117] yielded a herbicidal activity ([4]; pre-emergence, 62,5 g/ha) of 100%, a herbicidal activity ([2]; pre-emergence, 62,5 g/ha) of 100% and a herbicidal activity ([3]; pre-emergence, 62,5 g/ha) of 98%.
